Source: patent US9642832B2, “Use of atractylenolide compound or its derivatives and a medicament for inhibiting platelet aggregation” (No. 3 People Hospital Affiliated to Shanghai Jiaotong …, priority 2014, dated 2017)

What was measured:
Assay type in all cases: cell-based, human
platelets [1] = assay: Platelet aggregation test, thrombin as stimulant; settings: for in vitro platelet aggregation inhibition, comparative experiment: under the stimulus of thrombin; for platelet aggregation inhibition: human platelets 3×10^8/mL, compound 0.1, 0.5, 1, 5, 10 μM, incubated 3 mins, thrombin stimulant
platelets [2] = assay: Platelet spreading test on fibrin, phalloidin staining; settings: platelets 3×10^7/mL, compound 1, 5, 10 μM, incubated 3 mins, spread on fibrin (40 μg/mL), 100× oil immersion lens
Method: (1) Preparation of platelets: use the same method as abovementioned to prepare platelets counting 3×10^7/mL.
The compound is incubated in platelets for 3 mins. The platelets treated by the drug are spread on fibrin (40 μg/mL). After Staining by the fluorescent antibody phalloidin, the spreading of platelets are observed under the 100× oil immersion lens.
(2) Concentration gradient of compound atractylenolide III; final concentrations of the compound in 100 uL platelets are respectively 1 μM, 5 μM, 10 μM. The compound is incubated in platelets for 3 mins. The platelets treated by the drug are spread on fibrin (40 μg/mL). After staining by the fluorescent antibody phalloidin, the spreading of platelets is observed under the 100× oil immersion lens.

Akt molecule = assay: Western blotting test on phosphorylation levels of related molecules in platelets; settings: platelet protein samples collected after the aggregation test
Source text: After acquiring the aggregation curve in Example 1, platelet protein samples (2×SDS loading protein lysis buffer) are collected, and tested by Western blotting for phosphorylation levels of related molecules.
Testing the phosphorylation levels of related molecules in the signal pathway using Western blotting, when the PI3K/Akt signal pathway is activated, the Akt molecule is activated via phosphorylation, which leads to the activation of downstream enzymes, kinases, transcription factors (e.g. GSK3), etc.
After acquiring the aggregation curve in Example 2, platelet protein samples (2×SDS loading protein lysis buffer) are collected, and tested by Western blotting for phosphorylation levels of related molecules.

With atractylenolide II the “in vitro platelet aggregation inhibition, comparative experiment” value (from here on “in vitro platelet aggregation inhibition”) (platelets [1]; 10 μM) was “has the effect of inhibiting platelet aggregation”, the platelet aggregation inhibition (platelets [1]) was “has an effect of inhibiting platelet aggregation” and the “effect on platelet spreading” value (platelets [2]) was “has an influence on platelet spreading”.
For `C=C1CCC[C@]2(C)C[C@]3(O)OC(=O)C(C)=C3C[C@@H]12` [atractylenolide III], the “phosphorylation level of the Akt molecule” value (Akt molecule) was “affects the phosphorylation level of the Akt molecule”, the “in vitro platelet aggregation inhibition” value (platelets [1]; 10 μM) was “has the effect of inhibiting platelet aggregation” and the platelet aggregation inhibition (platelets [1]) was “has an effect of inhibiting platelet aggregation”. The “effect on platelet spreading” value (platelets [2]) was “has an influence on platelet spreading”.
With `CC(=O)Oc1ccccc1C(=O)O` [acetylsalicylic acid, reference compound] the “in vitro platelet aggregation inhibition” value (platelets [1]; 150 μM) was “does not show the inhibitory effect”.
